Laboratory results from article PMC10580319, “Quantitative Imaging of the Action of vCPP2319, an Antimicrobial Peptide from a Viral Scaffold, against Staphylococcus aureus Biofilms of a Clinical Isolate” (ACS Infectious Diseases, 2023).
Where no end group is shown, it is not given here.

Experiments:
[1] = test system: S. aureus clinical isolate biofilm-embedded bacteria; test: CLSM live/dead assay, SYTO 9 / TO-PRO-3 iodide, membrane integrity; assay type: cell-based, Staphylococcus aureus; details: 25 and 50 μM, 4 h in PBS, inner layer z = 2 μm
Experimental: To visualize the effect of vCPP2319 on membrane integrity of biofilm-embedded bacteria, an adapted live/dead assay using SYTO 9 and TO-PRO-3 iodide (Invitrogen) was performed, as previously described.[24]S. aureus suspensions at 1 × 10^6 CFU/mL were incubated in a sterile μ-Slide 8-well plate (Ibidi) for 24 h at 37 °C. Preformed biofilms were washed once with PBS and incubated with vCPP2319 at 25 or 50 μM, in PBS, for 4 h at 37 °C. Untreated biofilms were used as a control. After a washing step with PBS, biofilms were sequentially stained with 3 μM SYTO 9 for 30 min and 4 μM TO-PRO-3 iodide for 15 min at room temperature.
SYTO 9 was excited using the Argon laser (488 nm), and both TO-PRO-3 iodide and WGA Alexa Fluor 633 were excited with the Helium–Neon laser (633 nm), respectively. […] All images were analyzed with the image processor Fiji.[54] TO-PRO-3 mean fluorescence intensity over the image was quantified from the xy plane of an inner layer (z = 2 μm, z being the distance from the surface of the glass slide) using Fiji’s incorporated plug-ins.[54] WGA mean fluorescence intensity over the image was quantified from the xy plane of an inner layer (z = 2 μm, z being the distance from the surface of the glass slide) and also from a z-projection of the sum of the z-stack slices, using Fiji’s incorporated plug-ins.[54] […]

[2] = test system: S. aureus clinical isolate biofilms; test: Colony count assay on 24 h-preformed biofilms; assay type: cell-based, Staphylococcus aureus; details: mean ± SD
Experimental: (§1) The effect of vCPP2319 on 24 h-preformed S. aureus biofilms was evaluated using three distinct methods, as previously described:[24] the metabolic activity and viability of biofilm-embedded cells was determined using a resazurin reduction fluorometric assay and a colony count assay, respectively. The total biofilm biomass was quantified by using a crystal violet assay.
(§2) S. aureus suspensions at 1 × 10^6 CFU/mL were incubated in a sterile 96-well microtiter clear flat-bottomed polystyrene plate (Corning) for 24 h at 37 °C. Nonadherent bacteria were removed after a washing step with MHB, and preformed biofilms were incubated in the absence or presence of vCPP2319 at 25 or 50 μM, for 4 h at 37 °C. Untreated biofilms were used as a control. To evaluate the effect of vCPP2319 redosing on biofilm-embedded bacteria, 24 h-preformed biofilms were incubated in the absence or presence of vCPP2319 at 25 μM, for 4 h at 37 °C. After a washing step with MHB, biofilms were further incubated in the absence or presence of an additional dose of vCPP2319 at 25 or 50 μM, for 4 h at 37 °C. In both experimental settings, after two washing steps with PBS, the biofilms were resuspended in PBS, followed by cell scrapping with a pipet tip as described elsewhere.[49],[50] […] After incubation, the biofilms were removed by cell scrapping with a pipet tip as described elsewhere.[49],[50] In all experimental settings, aliquots were vortexed at high speed, serially diluted in PBS and plated on nutrient-rich trypcase soy agar (TSA) plates (bioMérieux, Marcy l’Etoile, France). After incubation for 24 h at 37 °C, bacterial colonies were counted, and viable bacteria (in CFU/mL) were reported as percentage of the control.

[3] = test system: S. aureus ATCC 6538 biofilms; test: Colony count assay on 24 h-preformed biofilms; assay type: cell-based, Staphylococcus aureus; details: 25 or 50 μM, 4 h, colony count (Figure 2C)
Experimental: as §1, §2

[4] = test system: HMEC-1 cells; test: Cytotoxicity, CellTiter-Blue cell viability assay; assay type: cell-based, human; details: 24 h incubation
Experimental: Human dermal microvascular endothelium cells (HMEC-1, ATCC CRL-3243) (ATCC, Manassas, VA, USA) were cultured as a monolayer using MCDB-131 medium (without L-glutamine) with phenol red (Gibco, Thermo-Fisher, Waltham, MA, USA). The medium was supplemented with 10% (v/v) fetal bovine serum (FBS), 1% (v/v) penicillin/streptomycin (Gibco, Thermo-Fisher), 10 ng/mL epidermal growth factor (EGF), 1 μg/mL hydrocortisone (Sigma-Aldrich, St. Louis, MO, USA), and 10 mM glutamine (ATCC), according to the manufacturer’s instructions. Cells were grown in a humidified atmosphere of 5% CO2 at 37 °C. The cytotoxicity of vCPP2319 toward HMEC-1 cells was determined using CellTiter-Blue Cell Viability Assay (Promega, USA), according to the manufacturer’s instructions. HMEC-1 cells were seeded into a sterile 96-well clear flat-bottomed polystyrene plate (Corning) at 2.5 × 10^4 cells/well and incubated for 24 h at 37 °C. After medium removal, cells were washed twice with PBS. […] The fluorescence intensity was measured with excitation and emission at 560 and 590 nm, respectively, using the infinite M200 microplate reader (Tecan). […] HMEC-1 cells metabolic activity (%) was determined using the following equation: [drawing 2] 2 where FP is the fluorescence intensity of peptide-treated cells, FNC is the fluorescence intensity of negative controls, and FPC is the fluorescence intensity of positive controls. […]

Substance: WRRRYRRWRRRRRWRRRPRR-NH2 [vCPP2319]
- membrane damage, TO-PRO-3 iodide staining [1]: increase of red-stained bacteria
- percentage of viable cells ([2]; 25 μM for 4 h, then second treatment at 25 μM for 4 h): 27.6 ± 13.6%
- percentage of viable cells ([2]; 25 μM for 4 h, then second treatment at 50 μM for 4 h): 9.4 ± 4.7%
- percentage of viable cells ([2]; first treatment 25 μM for 4 h, relative to untreated biofilm): 44.7 ± 4.3%
- viability of biofilm-embedded cells [3]: decreased bacterial viability
- effect on metabolic activity of HMEC-1 cells ([4]; 50 μM, highest concentration tested): slight effect
- effect on metabolic activity of HMEC-1 cells ([4]; concentrations of up to 25 μM): no effect
